In paper PMC12122562, “Phase 1 studies of the indenoisoquinolines LMP776 and LMP744 in patients with solid tumors and lymphomas” (Cancer Chemotherapy and Pharmacology, 2025):

Key:
cCasp3 = assay: IFA of paired tumor biopsies: cCasp3 co-localized with γH2AX (apoptosis); format: in vivo, human; conditions: patient 29, MTD, C1D2
Excerpt: (§1) The LMP744 protocol collected pre-treatment (baseline) and on-treatment paired biopsies from patients in the expansion cohort. Core needle tumor biopsies (18-gauge) were collected and flash-frozen at point of collection per NCI SOPs (https://dctd.cancer.gov/ResearchResources/biomarkers/docs/par/SOP340507_Biopsy_Frozen.pdf) as described to preserve labile post-translational modifications such as phosphorylation. Biopsy pairs were thawed in formalin, fixed in paraffin embedded together with control tissues following NCI SOP340550 (https://dctd.cancer.gov/ResearchResources/biomarkers/DDR3/SOP340550_Biopsy_Section_Testis_Jejunum_Controls.pdf). TOP1 and TOP1cc were measured with a cocktail containing custom-conjugated rabbit monoclonal antibody anti-TOP1-DIG (Abcam, EPR5376 (2)) and mouse monoclonal antibody anti-TOP1cc (clone 1.1A [34, 35], EMD Millipore) that were detected with reporter secondary antibodies AlexaFluor-647 IgG fraction monoclonal mouse anti-digoxin (Jackson ImmunoResearch) and goat/anti-mouse AlexaFluor-488, respectively. Phosphorylated KAP1 (pKAP1, phosphorylated at S824) was measured using custom-conjugated pKAP1-pS824-DNP (Abcam, EPR5248) and detected with AlexaFluor-488 conjugated with anti-dinitrophenyl-KLH rabbit IgG Antibody Fraction (DNP-488, ThermoFisher). […]

pKAP1 = assay: qIF of paired tumor biopsies: nuclear pKAP1; format: in vivo, human; conditions: 6 patients at MTD, C1D2
Excerpt: as §1

[1] = system: naturally occurring lymphomas; design: method as in PMID 30061364; conditions: canines with lymphomas; cited from earlier work

COc1cc2c3c(n(CCCNCCO)c(=O)c2cc1OC)-c1cc2c(cc1C3=O)OCO2 [LMP744]
Co-localized cytoplasmic cCASP3 (cCasp3): increase in co-localized cytoplasmic cCASP3 | Nuclear pKAP1 (pKAP1): increased only in patient 29 | Responders [1]: 13 of 19 | Response rate [1]: 68.4%

COc1cc2c3c(n(CCCn4ccnc4)c(=O)c2cc1OC)-c1cc2c(cc1C3=O)OCO2 [LMP776]
Responders [1]: 7 of 24 | Response rate [1]: 29.2%
